Where a name gives a salt, the structure may show the parent alone.
The compounds below were run on mouse melanoma cells (B16F10 cell line) (assay: Melanin inhibition assay). Settings: found through experimentation; H3 antagonists.
Assay type: cell-based
Protocol: The assays utilized mouse melanoma cells (B16F10 cell line) which are very efficient at producing melanin. Various inhibitors and enhancers of melanin synthesis were added to the cultured cells along with experimental samples.
The B16F10 murine melanocytes were seeded into 24-well tissue culture plates and allowed to grow to confluency in complete DMEM. Solutions of H3 antagonists, Arbutin, alpha-Melanocyte Stimulating Hormone (a-MSH), and AA2G were prepared in Complete DMEM. Complete Dulbeco's Modified Eagle Media (DMEM) was used as the untreated control. Additionally, the individual components of the H3 antagonists, Yeast Peptide and Plant Extract, were also analyzed for melanogenic effects. Cells were treated for 72 hours.
For the inhibition assay, the media was removed from the wells and the monolayers were washed with phosphate buffered saline (PBS). NaOH was added to each well and 100 μL of each solution were added to a 96-well plate in duplicate. The plate was measured by optical density readings at 400 nm.
As discussed above, skin pigmentation is determined by the amount of melanin in the skin which is produced by […] melanocytes. In addition to the melanin inhibition study comparing the fermented plant abstract to AA2G, Arbutin, α-MSH, and Kojic acid, a melanin inhibition study was conducted to compare the fermented plant extract with its individual components—peptide from yeast and plant extract—to assess their ability to inhibit melanin synthesis. The melanin assay was conducted using the same methodogies as discussed above with respect to H3 antagonists, in general.
For `Br.Br.C[C@@H](N)Cc1c[nH]cn1` [(R)-(-)-a-Methylhistamine dihydrobromide], the “suitability to reduce or eliminate pigmentation in a users skin” value was “suitable for use as a by-product in cosmetics to reduce or eliminate pigmentation”.
In the case of `C[C@H]1[C@H]2CC[C@H]3[C@@H]4CC=C5C[C@@H](N(C)C)CC[C@]5(C)[C@H]4CC[C@]23CN1C` [Conessine], the “suitability to reduce or eliminate pigmentation in a users skin” value is reported as “suitable for use as a by-product in cosmetics to reduce or eliminate pigmentation”.
For `N=C(N)SCCc1cnc[nH]1` [Imetit dihydrobromide], the “suitability to reduce or eliminate pigmentation in a users skin” value was “suitable for use as a by-product in cosmetics to reduce or eliminate pigmentation”.
`NCCCCCc1cnc[nH]1` [Impentamine dihydrobromide] was tested, and the “suitability to reduce or eliminate pigmentation in a users skin” value was “suitable for use as a by-product in cosmetics to reduce or eliminate pigmentation”.
